Data as given in patent publication US7872014B2, “Anaplastic lymphoma kinase modulators and methods of use” (Exelixis, Inc., priority 2003, dated 2011).
Where a name gives a salt, the structure may show the parent alone.

Each compound was assayed against T1, ALK (baculovirus expressed human ALK kinase domain F1098-K1410) (Homo sapiens, UniProt Q9UM73) (assay: Luciferase-Coupled Chemiluminescent Kinase assay (LCCA), ALK biochemical activity). Conditions: inhibition of ALK; mean values; 1 μM ATP, 4 μM poly-AEKY, 12 nM ALK, 2 hours ambient temperature.
T1 construct: baculovirus expressed human ALK kinase domain F1098-K1410; made in house
T1 sequence (Q9UM73 1098-1410): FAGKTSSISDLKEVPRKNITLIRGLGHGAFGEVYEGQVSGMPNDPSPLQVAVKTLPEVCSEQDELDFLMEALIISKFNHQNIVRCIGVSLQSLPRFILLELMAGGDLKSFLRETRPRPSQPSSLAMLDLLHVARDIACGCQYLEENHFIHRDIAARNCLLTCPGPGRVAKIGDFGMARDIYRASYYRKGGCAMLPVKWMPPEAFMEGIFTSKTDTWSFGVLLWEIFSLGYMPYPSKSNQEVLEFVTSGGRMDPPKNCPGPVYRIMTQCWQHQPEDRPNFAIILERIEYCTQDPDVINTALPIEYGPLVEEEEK
How it was run: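 Luciferase-coupled readout of ATP remaining after reaction of 12 nM ALK kinase domain with 1 μM ATP and 4 μM poly-AEKY, Tris-HCl pH 7.5 buffer with MgCl2 and MnCl2. Incubated 2 h at ambient temperature; inhibition derived from ATP consumption across serial compound dilutions.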

SMILES | IC50 [nM]
COc1c(OC)c(F)c2c(c(-c3cc(Cl)c(O)cc3F)nc3[nH]nc(C)c32)c1OC [Example 154, 2-chloro-5-fluoro-4-[9-fluoro-1-methyl-6,7,8-tris(methyloxy)-3H-pyrazolo[3,4-c]isoquinolin-5-yl]phenol] | ≤ 99
COc1cc2c(c(-c3ccc(O)cc3)nc3[nH]nc(C)c32)c(F)c1OC [Example 93, 4-[6-fluoro-1-methyl-7,8-bis(methyloxy)-3H-pyrazolo[3,4-c]isoquinolin-5-yl]phenol] | ≤ 99
CCN(CC)CCOc1cc(F)c2c(-c3ccc(O)c(Cl)c3)nc3[nH]nc(C)c3c2c1F [Example 188, 2-chloro-4-(8-{[2-(diethylamino)ethyl]oxy}-6,9-difluoro-1-methyl-3H-pyrazolo[3,4-c]isoquinolin-5-yl)phenol] | ≤ 99
Cc1n[nH]c2nc(-c3ccc(N)nc3)c3c(F)cc(O)c(F)c3c12 [Example 198, 5-(6-aminopyridin-3-yl)-6,9-difluoro-1-methyl-3H-pyrazolo[3,4-c]isoquinolin-8-ol] | > 2000
COc1cc2c(-c3cc(Br)c(O)cc3F)nc3[nH]nc(C)c3c2cc1OC [Example 122, 2-bromo-5-fluoro-4-[1-methyl-7,8-bis(methyloxy)-3H-pyrazolo[3,4-c]isoquinolin-5-yl]phenol] | ≤ 99
Cc1n[nH]c2nc(-c3ccc(O)c(Cl)c3)c3c(F)cc(OCCN4CCCCC4)c(F)c3c12 [Example 186, 2-chloro-4-{6,9-difluoro-1-methyl-8-[(2-piperidin-1-ylethyl)oxy]-3H-pyrazolo[3,4-c]isoquinolin-5-yl}phenol] | ≤ 99

Now from value to compound:

IC50 [nM] | SMILES
≤ 99 | COc1c(OCCN2CC(C)OC(C)C2)cc(F)c2c(-c3ccc(O)c(Cl)c3)nc3[nH]nc(C)c3c12 (stereo not drawn) [Example 239, 2-chloro-4-[8-{[2-(2,6-dimethylmorpholin-4-yl)ethyl]oxy}-6-fluoro-1-methyl-9-(methyloxy)-3H-pyrazolo[3,4-c]isoquinolin-5-yl]phenol]
≤ 99 | COc1cc2c(-c3ccc(O)cc3)nc3[nH]nc(C)c3c2cc1OC [Example 15, trifluoroacetate]
> 2000 | COCCOc1cc(F)c2c(-c3ccccc3F)nc3[nH]nc(C)c3c2c1F [Example 156, 6,9-difluoro-5-(2-fluorophenyl)-1-methyl-8-{[2-(methyloxy)ethyl]oxy}-3H-pyrazolo[3,4-c]isoquinoline]
≤ 99 | COCCOc1cc(F)c2c(-c3ccc(O)cc3F)nc3[nH]nc(C)c3c2c1F [Example 126, 4-(6,9-difluoro-1-methyl-8-{[2-(methyloxy)ethyl]oxy}-3H-pyrazolo[3,4-c]isoquinolin-5-yl)-3-fluorophenol]
≤ 99 | CCN(CC)CCN(C)CCOc1cc(F)c2c(-c3ccc(O)c(Cl)c3)nc3[nH]nc(C)c3c2c1OC [Example 228, 2-chloro-4-[8-({2-[[2-(diethylamino)ethyl](methyl)amino]ethyl}oxy)-6-fluoro-1-methyl-9-(methyloxy)-3H-pyrazolo[3,4-c]isoquinolin-5-yl]phenol]
100 to 999 | COc1cc2c(-c3ccc(O)cc3)cc3[nH]nc(C)c3c2c(F)c1OC [Example 123, 4-[9-fluoro-1-methyl-7,8-bis(methyloxy)-3H-benzo[e]indazol-5-yl]phenol]
100 to 999 | COc1cc2c(-c3ccc(O)cc3)nc3[nH]nc(C4CCN(C(=O)OC(C)(C)C)CC4)c3c2cc1OC [Example 67, 1,1-dimethylethyl 4-[5-(4-hydroxyphenyl)-7,8-bis(methyloxy)-3H-pyrazolo[3,4-c]isoquinolin-1-yl]piperidine-1-carboxylate]
100 to 999 | COc1cc2c(cc1F)c(-c1ccc(O)cc1)nc1[nH]nc(C)c12 [Example 109, 4-[7-fluoro-1-methyl-8-(methyloxy)-3H-pyrazolo[3,4-c]isoquinolin-5-yl]phenol]
1000 to 2000 | Cc1n[nH]c2nc(-c3cn(C)c(=N)s3)c3c(F)cc(O)c(F)c3c12 [Example 221, 6,9-difluoro-5-(2-imino-3-methyl-2,3-dihydro-1,3-thiazol-5-yl)-1-methyl-3H-pyrazolo[3,4-c]isoquinolin-8-ol]
